Tested on: lymphocytes
Test: Two-colour microarray gene expression analysis of lymphocytes treated with rapamycin vs untreated
Type: cell-based, human
Conditions: rapamycin 100 ng/ml, 24 h
Procedure: Two-colour microarray based gene expression analysis (Agilent Technologies) was used to identify genes that were differentially expressed in lymphocytes treated with rapamycin compared to lymphocytes that were left untreated. The microarray used was the Agilent Whole Human Genome Microarray: 4×44K.
Two parallel lymphocyte cultures were set up in RPMI medium supplemented with 10% FCS at a concentration of 1×10^6 cells per 1 ml of culture media. Phytohaemaglutinin (PHA) was added to the cultures at a final concentration of 22 μg/ml to activate the lymphocytes. Cultures were incubated for 48 hours at 37° C. in a humidified atmosphere containing 5% CO2. After 48 hours culture, one culture was treated with 100 ng/ml rapamycin, while the other untreated culture was kept as a control. After a further 24 hours, the cells of each lymphocyte culture were harvested by centrifugation.
RNA was extracted from the lymphocyte pellets using TRI Reagent® in accordance with standard protocol. To ensure that there was no DNA contamination, the RNA was treated with DNase (Qiagen) according to the manufacturer's standard protocol. RNA quality was determined by RNA nano-chip analysis using an Agilent 2100 Bioanalyser, also according to standard protocol. The RNA quality of the samples ranged from 8-10 RNA Integrity Number (RIN), indicative of good quality RNA suitable for gene expression microarray.
200 ng of RNA was converted to cDNA with the low-input quick amplification labelling kit (Agilent, 5190-2305). Spike Mix A and B were prepared separately. For each, the spike mix was thawed and vortexed, incubated at 37° C. for 5 minutes, and diluted in the provided dilution buffer (see Table 3 for dilution protocol). 2 μl of diluted spike mix A and spike mix B were added to 200 ng of RNA in a 1.5 μl volume from the rapamycin-treated and untreated lymphocytes respectively. […] The samples were incubated at 65° C. for 10 minutes, and placed on ice for 5 minutes. 4.7 μl of the cDNA master mix was added per sample, and samples incubated at 40° C. for 2 hours; 70° C. for 15 minutes; and placed on ice for 5 minutes.
The low-input quick amplification labelling kit (Agilent, 5190-2305) was used to convert the cDNA to labelled cRNA. Spike Mix A samples were added to transcription master mix prepared with Cyanine 3-CTP (green), whereas Spike Mix B samples were added to transcription master mix prepared with Cyanine 5-CTP (red). 6 μl of the transcription master mix was added per 10 μl cDNA sample, and incubated at 40° C. for 2 hours.
The cRNA was purified by standard RNeasy mini column protocol (Qiagen). The cRNA was quantified with a nanodrop spectrophotometer on the Microarray setting. The yield and specific activity of the cRNA samples were calculated as follows: […]
825 ng of labelled cRNA was added to various fragmentation components as described in Table 7, incubated at 60° C. for 30 minutes, and cooled on ice for 1 minute. 55 μl of GEx Hybridisation buffer HI-RPM was subsequently added to stop fragmentation. The samples were mixed, centrifuged at 13,000 rotations per minute (RPM) for 1 minute, and placed on ice in preparation for microarray assembly. The microarray of choice was the 4×44K Agilent Whole Human Genome Microarray. A clean gasket slide was placed into the chamber base, 100 μl of sample dispensed per well, and array placed onto the gasket slide to facilitate hybridisation. The gasket and microarray slides were clamped together and incubated at 65° C. for 17 hours.
Following hybridisation, the microarrays were washed in various wash solutions as described in Table 8. To summarise, the microarrays were removed from the hybridisation assembly and carefully separated from the gasket slide whilst fully submersed in wash buffer 1. Slides were washed for 1 minute, transferred to wash buffer 2 at 37° C. for 1 minute, and washed in acetonitrile for 10 seconds. The final wash was in stabilisation and drying solution for 30 seconds. […]

`CO[C@H]1C[C@@H]2CC[C@@H](C)[C@@](O)(O2)C(=O)C(=O)N2CCCC[C@H]2C(=O)O[C@H]([C@H](C)C[C@@H]2CC[C@@H](O)[C@H](OC)C2)CC(=O)[C@H](C)/C=C(\C)[C@@H](O)[C@@H](OC)C(=O)[C@H](C)C[C@H](C)/C=C/C=C/C=C/1C` [rapamycin] showed a Fold change (gene ACPP (up-regulated)) of 1.769, a Fold change (gene ACSL6 (down-regulated)) of −1.795 and a Fold change (gene ACSS1 (up-regulated)) of 1.212. It also gave a Fold change (gene ADAMTS15 (up-regulated)) of 1.095, a Fold change (gene ADAMTS16 (down-regulated)) of −1.497 and a Fold change (gene ADH6 (up-regulated)) of 1.177. For the same compound, the Fold change (gene ADSSL1 (up-regulated)) was 0.8544, the Fold change (gene ALDH1A3 (up-regulated)) was 1.792 and the Fold change (gene AMY1C, symbol AMY1A (includes others) (up-regulated)) was 0.8998. For the same compound, the Fold change (gene AP1S1 (down-regulated)) was −1.488, the Fold change (gene B3GALT4 (up-regulated)) was 1.175 and the Fold change (gene B4GALT6 (up-regulated)) was 1.07. For the same compound, the Fold change (gene BMP7 (up-regulated)) was 1.123, the Fold change (gene CA6 (up-regulated)) was 1.029 and the Fold change (gene CCL1 (up-regulated)) was 1.135. It also gave a Fold change (gene CCL2 (down-regulated)) of −2.661, a Fold change (gene CCL8 (down-regulated)) of −2.62 and a Fold change (gene CCL26 (up-regulated)) of 1.662. The Fold change (gene COL8A2 (down-regulated)) was −1.411, the Fold change (gene CROT (down-regulated)) was −2.4978 and the Fold change (gene CTSF (up-regulated)) was 1.61. The Fold change (gene CYP3A5 (up-regulated)) was 1.214, the Fold change (gene CYP4F3 (up-regulated)) was 1.395 and the Fold change (gene CYP4V2 (up-regulated)) was 0.8253. It also gave a Fold change (gene CYP4X1 (up-regulated)) of 1.062, a Fold change (gene DCLK1 (up-regulated)) of 1.437 and a Fold change (gene DHRS3 (up-regulated)) of 0.8206. It also gave a Fold change (gene DTD1 (up-regulated)) of 1.511, a Fold change (gene DUSP13 (up-regulated)) of 1.045 and a Fold change (gene DYNC2LI1 (down-regulated)) of −1.902. For the same compound, the Fold change (gene DZIP3 (up-regulated)) was 0.8533, the Fold change (gene EGLN3 (down-regulated)) was −1.959 and the Fold change (gene F9 (up-regulated)) was 1.605. For the same compound, the Fold change (gene FGF2 (down-regulated)) was −2.241, the Fold change (gene FGF18 (down-regulated)) was −1.255 and the Fold change (gene FJX1 (down-regulated)) was −2.328. The Fold change (gene FUT9 (down-regulated)) was −1.648, the Fold change (gene GBP3 (up-regulated)) was 0.8462 and the Fold change (gene GDA (up-regulated)) was 1.596. The Fold change (gene GNAL (up-regulated)) was 0.996, the Fold change (gene GPAM (down-regulated)) was −1.231 and the Fold change (gene GPX6 (up-regulated)) was 1.702. The Fold change (gene HCK (down-regulated)) was −1.403, the Fold change (gene HSD17B13 (up-regulated)) was 1.51 and the Fold change (gene IGBP1 (up-regulated)) was 0.8038. It also gave a Fold change (gene IGF2 (up-regulated)) of 1.185, a Fold change (gene IL1B (up-regulated)) of 1.136 and a Fold change (gene IL1RN (up-regulated)) of 1.004. For the same compound, the Fold change (gene IL2 (down-regulated)) was −1.407, the Fold change (gene IL3 (down-regulated)) was −2.123 and the Fold change (gene IL6 (down-regulated)) was −1.3333. It also gave a Fold change (gene IL10 (down-regulated)) of −2.727, a Fold change (gene INPP5E (down-regulated)) of −1.4981 and a Fold change (gene INPP5K (up-regulated)) of 0.7753. For the same compound, the Fold change (gene JAK1 (up-regulated)) was 0.8726, the Fold change (gene LEFTY1 (up-regulated)) was 1.067 and the Fold change (gene LEP (up-regulated)) was 1.281. The Fold change (gene LIPF (up-regulated)) was 1.349, the Fold change (gene LOXL3 (down-regulated)) was −1.3654 and the Fold change (gene MMP9 (up-regulated)) was 1.152. For the same compound, the Fold change (gene MOXD1 (down-regulated)) was −2.421, the Fold change (gene MPP4 (up-regulated)) was 0.8611 and the Fold change (gene MTHFR (up-regulated)) was 0.8153. It also gave a Fold change (gene OGN (up-regulated)) of 1.567, a Fold change (gene PAOX (up-regulated)) of 0.8572 and a Fold change (gene PDE1A (up-regulated)) of 1.31. For the same compound, the Fold change (gene PDE4C (up-regulated)) was 1.017, the Fold change (gene PDK4 (up-regulated)) was 0.8187 and the Fold change (gene PIM1 (up-regulated)) was 1.101. It also gave a Fold change (gene PITPNM2 (up-regulated)) of 0.8702, a Fold change (gene PLAT (up-regulated)) of 0.8897 and a Fold change (gene PLB1 (up-regulated)) of 1.566. For the same compound, the Fold change (gene PLD1 (up-regulated)) was 0.9334, the Fold change (gene PLGLB1, symbol PLGLB1/PLGLB2 (up-regulated)) was 0.9441 and the Fold change (gene PON3 (up-regulated)) was 1.013. The Fold change (gene PRKG1 (down-regulated)) was −1.116, the Fold change (gene PRODH2 (up-regulated)) was 1.716 and the Fold change (gene PRSS23 (up-regulated)) was 1.012. It also gave a Fold change (gene PTGS2 (down-regulated)) of −1.2871, a Fold change (gene PYCR1 (down-regulated)) of −1.294 and a Fold change (gene RAB37 (up-regulated)) of 0.9052. It also gave a Fold change (gene RAB39 (up-regulated)) of 0.8095, a Fold change (gene RND3 (up-regulated)) of 0.9124 and a Fold change (gene RPS6KB1 (up-regulated)) of 1.481. It also gave a Fold change (gene RRAD (down-regulated)) of −1.632, a Fold change (gene SGTA (down-regulated)) of −1.403 and a Fold change (gene SPP1 (up-regulated)) of 1.471. The Fold change (gene SPRED2 (up-regulated)) was 0.825, the Fold change (gene ST3GAL6 (up-regulated)) was 1.175 and the Fold change (gene ST6GALNAC2 (down-regulated)) was −1.242. The Fold change (gene STK31 (up-regulated)) was 1.092, the Fold change (gene STS (up-regulated)) was 0.8677 and the Fold change (gene TAC1 (down-regulated)) was −1.262. The Fold change (gene TDH (up-regulated)) was 1.414, the Fold change (gene THBS1 (down-regulated)) was −1.359 and the Fold change (gene TRIB1 (up-regulated)) was 1.07. The Fold change (gene UBE2M (down-regulated)) was −1.504, the Fold change (gene ULK2 (up-regulated)) was 1.069 and the Fold change (gene WWP2 (up-regulated)) was 0.9105. For the same compound, the Fold change (gene ZADH2 (up-regulated)) was 1.005.

From patent US20140295425A1, “Diagnosis for Alzheimer's Disease” (The University of Birmingham, priority 2011, published 2014)
